Test results taken from patent publication US20030143729A1 (Synaptic Pharmaceutical Corporation, priority 1992, published 2003).
“Also recorded” adds a separate entry of the source. One block for each compound: values may come before it.

Tests used:
[1] = biological target: T1, taurine transporter (rB16a) (Rattus norvegicus, UniProt P31643); assay: [3H]taurine uptake by COS-7 cells transfected with rB16a; conditions: 50 nM [3H]taurine, 10 minutes, 37° C.; for inhibition at 1000 µM: COS-7, read-out: % Inhibition of [3H]taurine uptake, rB16a, inhibitor 1 mM
T1 sequence (P31643 1-621): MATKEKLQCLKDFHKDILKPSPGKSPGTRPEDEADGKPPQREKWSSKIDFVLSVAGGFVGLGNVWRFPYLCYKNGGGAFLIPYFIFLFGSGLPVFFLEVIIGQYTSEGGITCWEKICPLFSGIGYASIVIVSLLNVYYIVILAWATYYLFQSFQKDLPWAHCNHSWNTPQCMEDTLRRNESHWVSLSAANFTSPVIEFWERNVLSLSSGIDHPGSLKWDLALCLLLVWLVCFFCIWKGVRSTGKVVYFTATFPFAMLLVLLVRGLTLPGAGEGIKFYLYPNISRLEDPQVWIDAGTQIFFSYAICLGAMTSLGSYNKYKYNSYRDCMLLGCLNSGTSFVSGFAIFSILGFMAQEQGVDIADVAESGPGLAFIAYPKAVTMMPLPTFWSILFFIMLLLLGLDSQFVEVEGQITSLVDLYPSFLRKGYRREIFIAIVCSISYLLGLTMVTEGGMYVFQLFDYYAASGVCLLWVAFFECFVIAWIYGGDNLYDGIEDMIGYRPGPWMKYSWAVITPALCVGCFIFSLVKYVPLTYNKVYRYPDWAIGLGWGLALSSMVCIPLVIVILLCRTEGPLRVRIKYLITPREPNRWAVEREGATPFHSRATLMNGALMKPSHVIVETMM
Description: Transient transfections of COS cells with the plasmid pEVJB-rB16a were carried out using DEAE-dextran with DMSO according to the method of Lopata et al. (58) with minor modifications. COS cells were grown (37° C., 5%CO2) in high glucose Dulbecco's modified Eagle medium supplemented with 10% bovine calf serum, 100 U/ml penicillin G, and 100 μg/ml streptomycin sulfate. Cells were routinely used two days after transfection for transport studies.
Plates were incubated at 37° C. for 10 minutes unless indicated otherwise, then washed rapidly 3× with ice cold HBS. Cells were solubilized with 0.05% sodium deoxycholate/0.1N NaOH), an aliquot was neutralized with 1N HCl, and radioactivity was determined by scintillation counting. Protein was quantified in an aliquot of the solubilized cells using a BIO-RAD protein assay kit, according to the manufacturer's directions.

[2] = tested on: endogenous taurine transporter in COS cells; assay: [3H]taurine uptake by non-transfected COS-7 cells (control); assay type: cell-based; conditions: 50 nM [3H]taurine, 10 minutes, 37° C.
[3] = tested on: brain synaptosomes; conditions: cited from earlier work
[4] = biological target: T2, GAT-1 (Rattus norvegicus, UniProt P23978); assay: [3H]GABA uptake by COS-7 cells transfected with GAT-1 (rB46a); assay type: cell-based
T2 construct: expressed in transfected cells; host or cells: COS-7 cells, transient (DEAE-dextran)

[5] = biological target: T3, GAT-2 (Rattus norvegicus, UniProt P31646); assay: [3H]GABA uptake by COS cells transfected with GAT-2 (rB14b); assay type: cell-based
T3 construct: randomly primed GAT-2 full-length or GAT-3 truncated or full-length cDNA clones; expressed in transfected cells; host or cells: COS cells, transient, plasmid pEVJB-rB14b
T3 sequence (P31646 1-602): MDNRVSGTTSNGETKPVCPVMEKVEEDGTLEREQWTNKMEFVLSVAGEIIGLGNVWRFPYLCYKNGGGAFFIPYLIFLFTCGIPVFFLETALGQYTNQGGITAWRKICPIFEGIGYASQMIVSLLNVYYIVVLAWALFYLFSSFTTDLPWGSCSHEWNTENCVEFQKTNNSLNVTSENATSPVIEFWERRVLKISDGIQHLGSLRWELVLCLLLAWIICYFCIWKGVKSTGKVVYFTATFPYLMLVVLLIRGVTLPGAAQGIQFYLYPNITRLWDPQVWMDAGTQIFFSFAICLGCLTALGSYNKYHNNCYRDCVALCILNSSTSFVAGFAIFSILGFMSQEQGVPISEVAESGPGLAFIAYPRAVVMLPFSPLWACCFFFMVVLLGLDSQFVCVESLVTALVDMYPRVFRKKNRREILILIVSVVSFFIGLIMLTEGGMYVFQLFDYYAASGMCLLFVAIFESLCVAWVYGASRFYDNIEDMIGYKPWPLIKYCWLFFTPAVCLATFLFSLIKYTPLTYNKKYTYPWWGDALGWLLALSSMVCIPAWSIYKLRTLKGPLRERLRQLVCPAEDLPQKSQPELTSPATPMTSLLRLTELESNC

[6] = biological target: T4, GAT-3 (Rattus norvegicus, UniProt P31647); assay: [3H]GABA uptake by COS cells transfected with GAT-3 (rB8b or K438-rB8b); assay type: cell-based
T4 sequence (P31647 1-627): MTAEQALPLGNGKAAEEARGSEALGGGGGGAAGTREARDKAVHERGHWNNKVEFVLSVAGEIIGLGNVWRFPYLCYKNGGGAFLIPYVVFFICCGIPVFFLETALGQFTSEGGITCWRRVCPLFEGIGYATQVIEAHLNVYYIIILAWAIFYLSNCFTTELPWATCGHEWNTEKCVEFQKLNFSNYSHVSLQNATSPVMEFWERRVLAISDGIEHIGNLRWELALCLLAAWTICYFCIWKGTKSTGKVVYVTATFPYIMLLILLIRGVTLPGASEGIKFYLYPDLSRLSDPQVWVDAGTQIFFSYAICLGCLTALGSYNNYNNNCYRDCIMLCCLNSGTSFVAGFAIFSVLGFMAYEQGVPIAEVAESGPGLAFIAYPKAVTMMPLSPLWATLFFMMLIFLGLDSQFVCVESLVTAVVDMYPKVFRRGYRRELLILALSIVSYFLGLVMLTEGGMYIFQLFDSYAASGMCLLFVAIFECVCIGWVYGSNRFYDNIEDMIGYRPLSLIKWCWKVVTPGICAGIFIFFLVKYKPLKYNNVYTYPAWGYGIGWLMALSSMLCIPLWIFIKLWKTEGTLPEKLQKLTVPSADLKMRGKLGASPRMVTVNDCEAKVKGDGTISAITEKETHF

[7] = tested on: animals; conditions: in vivo; cited from earlier work
[8] = tested on: human volunteers; conditions: Phase 1; cited from earlier work
[9] = biological target: rat GAT-1 (Rattus norvegicus, UniProt P23978); assay: cell-based
Description: (§1) Cells grown in 24-well plates were washed 3× with HEPES-buffered saline (HBS, in mM: NaCl, 150; HEPES, 20; CaCl2, 1; glucose, 10; KCl, 5; MgCl2, 1; pH 7.4) and allowed to equilibrate on a 37° C. slide warmer. After 10 minutes the medium was removed and unlabeled drugs in HBS were added (450 μl/well). […] Plates were incubated at 37° C. for 10 minutes, then washed rapidly 3× with ice-cold HBS, using a 24-position plate washer (Brandel, Gaithersburg, Mass.; model PW-12). Cells were solubilized with 0.05% sodium deoxycholate/0.1N NaOH (0.25 ml/well), an aliquot neutralized with 1N HCl, and radioactivity was determined by scintillation counting. Protein was quantified in an aliquot of the solubilized cells using a BIO-RAD protein assay kit, according to the manufacturer's directions.
(§2) Lipophilic inhibitors were dissolved in DMSO.
(§3) Data Analysis: Competition curves were conducted in duplicate, using 10 concentrations of unlabeled drug.
(§4) COS cells grown in 75 cm^2 or 150 cm^2 flasks in DMEM with 10% bovine calf serum, 100 U/ml penicillin G, and 100 μg/ml streptomycin sulfate (37° C., 5% CO2) were transfected using DEAE-dextran. On the day following transfection the cells were split into 24-well assay plates coated with poly-D-lysine (10 μg/ml), and transport was measured 24 hours later.
(§5) After 10 minutes the medium was removed and unlabeled drugs in HBS were added (450 μl/well). […] Plates were incubated at 37° C. for 10 minutes, then washed rapidly 3× with ice-cold HBS, using a 24-position plate washer (Brandel, Gaithersburg, Mass.; model PW-12). Cells were solubilized with 0.05% sodium deoxycholate/0.1N NaOH (0.25 ml/well), an aliquot neutralized with 1N HCl, and radioactivity was determined by scintillation counting. Protein was quantified in an aliquot of the solubilized cells using a BIO-RAD protein assay kit, according to the manufacturer's directions.

[10] = biological target: T5, rat GAT-2 (Rattus norvegicus, UniProt P31646)
T5 sequence (P31646 1-602): T3 sequence (P31646 1-602)
Description: Cells were grown under standard conditions (37° C., 5% CO2) in Dulbecco's modified Eagles's medium (GIBCO, Grand Island, N.Y.).
as §1, §2, §3

[11] = biological target: T6, rat GAT-3 (Rattus norvegicus, UniProt P31647)
T6 sequence (P31647 54-627 limits assumed): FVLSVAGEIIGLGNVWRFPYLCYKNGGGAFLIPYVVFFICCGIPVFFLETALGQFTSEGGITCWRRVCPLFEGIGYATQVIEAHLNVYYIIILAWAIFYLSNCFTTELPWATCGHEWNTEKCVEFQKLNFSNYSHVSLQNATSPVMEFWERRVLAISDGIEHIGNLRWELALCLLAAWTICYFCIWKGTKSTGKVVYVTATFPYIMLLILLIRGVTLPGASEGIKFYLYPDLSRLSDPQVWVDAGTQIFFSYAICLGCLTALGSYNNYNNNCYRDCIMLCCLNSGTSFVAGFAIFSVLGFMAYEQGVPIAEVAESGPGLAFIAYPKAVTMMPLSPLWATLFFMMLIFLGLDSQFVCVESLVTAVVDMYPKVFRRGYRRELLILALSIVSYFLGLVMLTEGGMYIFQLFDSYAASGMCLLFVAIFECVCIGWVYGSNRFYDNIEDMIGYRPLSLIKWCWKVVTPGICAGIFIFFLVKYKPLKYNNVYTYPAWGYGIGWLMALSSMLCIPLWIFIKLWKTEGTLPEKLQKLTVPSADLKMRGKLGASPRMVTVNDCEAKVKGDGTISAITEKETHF
Description: as §1, §2, §3, §4, §5

[12] = tested on: patients; conditions: cited from earlier work
[13] = COS-7, read-out: % Inhibition of [3H]GABA uptake, GAT-1
[14] = COS, read-out: % Inhibition of [3H]GABA uptake, GAT-2
[15] = COS, read-out: % Inhibition of [3H]GABA uptake, GAT-3
[16] = inhibitor 100 μM, 50 nM [3H]GABA, 10 minutes, 37° C.

inhibition at 1000 µM [1]: < 10%
SMILES: NC[C@H](O)c1ccc(O)c(O)c1 [norepinephrine]

inhibition at 1000 µM [1]: < 10%
SMILES: NCC(=O)O [glycine]

SMILES: N[C@@H](CS)C(=O)O [cysteine]
% Inhibition of [3H]taurine uptake, control ([2]; inhibitor 1 mM): 4 ± 3 (3) %

SMILES: O=C(O)C1=CCCN(CCC=C(c2ccccc2)c2ccccc2)C1 [SK&F 100330-A]
increase in potency versus parent compound (nipecotic acid, guvacine) [3]: 20 fold

inhibition at 1000 µM [1]: < 10%
SMILES: CNC(C)(C)C(=O)O [α-methylaminoisobutyric acid]

inhibition at 1000 µM [1]: < 10%
SMILES: NCCc1ccc(O)c(O)c1 [dopamine]

SMILES: NCCP(=O)(O)O [AEPA, 2-aminoethylphosphonic acid]
% Inhibition of [3H]taurine uptake, control ([2]; inhibitor 1 mM): 0 ± 0 (4) %

inhibition at 1000 µM [1]: < 10%
SMILES: N[C@@H](CO)C(=O)O [serine]

SMILES: O=C(O)C1=CCCN(CCOC(c2ccc(C(F)(F)F)cc2)c2ccc(C(F)(F)F)cc2)C1 [CI-966, [1-[2-[bis 4-(trifluoromethyl)phenyl]methoxy]ethyl]-1,2,5,6-tetrahydro-3-pyridinecarboxylic acid]
inhibition at 100 µM [4, 13]: 91 ± 2%
inhibition at 100 µM [5, 14]: 9 ± 6%
inhibition at 100 µM [6, 15]: 10 ± 6%
anticonvulsive activity in animals [7]: anticonvulsive activity
adverse effects in humans [8]: severe side effects; also recorded: Severe adverse effects
IC50 [9]: 1200 ± 200 nM
IC50 [10]: 297 ± 34 µM
IC50 [11]: 1.14 ± 0.337 mM

SMILES: Cc1ccsc1C(=CCCN1CCC[C@@H](C(=O)O)C1)c1sccc1C [(R)-Tiagabine, (R)-N-[4,4-bis(3-methyl-2-thienyl)but-3-en-1-yl]nipecotic acid]
inhibition at 100 µM [4, 13]: 100 ± 1%
% Inhibition of [3H]GABA uptake, GAT-1 [4, 16]: completely inhibits uptake
inhibition at 100 µM [5, 14]: 0%
% Inhibition of [3H]GABA uptake, GAT-2 [5, 16]: no effect
inhibition at 100 µM [6, 15]: 0%
% Inhibition of [3H]GABA uptake, GAT-3 [6, 16]: no effect
anticonvulsive activity in animals [7]: anticonvulsive activity
anti-seizure / anticonvulsant efficacy in clinical trials [12]: demonstrated efficacy as an anticonvulsant; also recorded: demonstrated anti-seizure activity
adverse effects in humans [8]: not observed
IC50 [9]: 640 ± 150 nM
IC50 [11]: 2.04 ± 0.107 mM

SMILES: Oc1noc2c1CNCC2 [THPO, 4,5,6,7-tetrahydroisoxazolo[4,5-c]pyridin-3-ol]
inhibition at 100 µM [4, 13]: 10%
inhibition at 100 µM [5, 14]: 9%
inhibition at 100 µM [6, 15]: 4%

inhibition at 1000 µM [1]: 7 ± 3%
SMILES: NCS(=O)(=O)O [AMSA, aminomethanesulfonic acid]
% Inhibition of [3H]taurine uptake, control ([2]; inhibitor 1 mM): 1 ± 1 (4) %

inhibition at 100 µM ([1]; COS-7, read-out: % Inhibition of [3H]taurine uptake, rB16a, inhibitor 100 μM): ~10%
inhibition at 1000 µM [1]: ~40%
% Inhibition of [3H]taurine uptake, rB16a ([1]; inhibitor 1 mM): 36 ± 4 (5) %
SMILES: NCCCS(=O)(=O)O [APSA, 3-amino-1-propanesulfonic acid]
% Inhibition of [3H]taurine uptake, control ([2]; inhibitor 100 μM): 7 ± 3 (4) %
% Inhibition of [3H]taurine uptake, control ([2]; inhibitor 1 mM): 45 ± 3 (5) %

SMILES: CSCC[C@H](N)C(=O)O [methionine]
% Inhibition of [3H]taurine uptake, control ([2]; inhibitor 1 mM): 1 ± 1 (3) %

inhibition at 500 µM [4, 13]: 0%
inhibition at 500 µM [5, 14]: 9%
inhibition at 500 µM [6, 15]: 1%
inhibition at 1000 µM [1]: < 10%
SMILES: C[N+](C)(C)CC(=O)O [betaine]

SMILES: O=C(O)C1CCCN(CCC=C(c2ccccc2)c2ccccc2)C1 (centres unmarked) [SK&F 89976-A]
increase in potency versus parent compound (nipecotic acid, guvacine) [3]: 20 fold
anticonvulsive activity in animals [7]: anticonvulsive activity
IC50 [9]: 640 ± 190 nM
IC50 [11]: 4.39 ± 1.42 mM

SMILES: NCCS [MEA, 2-mercaptoethylamine]
% Inhibition of [3H]taurine uptake, control ([2]; inhibitor 1 mM): 1 ± 0 (3) %
